Common to all, as to type: cell-based
Assay [1] has as its target T1, human μ-opioid receptor, OPRM (Homo sapiens, UniProt P35372).
T1 construct: host or cells: HEK-293 overexpressing β-arrestin2 fused to a β-galactosidase fragment
Description: Dominant assay: cAMP assay with/without irreversible antagonist β-FNA, OPRM cell line. An excerpt: (§1) To confirm the agonist's efficacy in a nature-like system, we need inactivation of target receptors on the cell membrane. Most cell lines have an abundant target receptor population (also known as spare receptors). Therefore, agonists have more opportunity to constitute agonist-receptor conformation. In this environment, not only full agonists but also partial agonists can reach maximal response.
(§2) If the partial agonist is selected as a full agonist, translational in vivo research will likely fail.
(§3) Non-competitive, irreversible antagonists can be applicable to judge the pharmacological character of agonists because they permanently decrease the receptor population in the cell line system. β-FNA or β-CNA is used as a non-competitive and irreversible antagonist for OPRM, OPRD. Before cAMP assay, cells were incubated with β-FNA or β-CNA for 40 minutes. Afterwards, the procedure is the same.
(§4) If a partial agonist compound acts as a full agonist due to receptor population (pseudo full agonist), it cannot sustain maximal response with reduced receptor population. However, a full agonist compound maintains their maximal response even though increased EC50.

Assay [2] deals with T2, human δ-opioid receptor, OPRD (Homo sapiens, UniProt P41143).
T2 construct: host or cells: HEK-293 overexpressing β-arrestin2 fused to a β-galactosidase fragment
Kind of assay: PathHunter β-arrestin 2 assay, OPRD cell line. An excerpt:
(§5) Human embryonic kidney 293 (HEK-293) cells which transfected overexpress (3-arrestin2 fused β-galactosidase fragment were purchased from DiscoverX. Human OPRM1 gene (NM 000914.3, encoding human μ-opioid receptor, OPRM) and Human OPRD1 gene (NM 000911.3, encoding human δ-opioid receptor, OPRD) were fused to a pCMV-ProLink plasmid which contains complementary β-galactosidase fragment purchased from DiscoverX. To generate human OPRM1 or OPRD1 expression cell lines, HEK-293 cells were transfected to prepared plasmid and grown in DMEM medium with 10% fetal bovine serum, 150 μg/mL Hygromycin B and 500 μg/mL G418.
(§6) The PathHunter enzyme assay was performed to measure the agonist's capability of β-arrestin 2 pathway activation. When agonists bind to G protein-coupled receptor (GPCR), the receptor pathway is sequentially activated from G protein to β-arrestin 2 recruitment.
(§7) Because […] β-arrestin 2 and C-terminal of GPCR have a fragment of β-galactosidase, recruitment of β-arrestin 2 to GPCR forms the whole β-galactosidase. The functionality of the whole β-galactosidase is detected by chemiluminescence (FlexStation3, Molecular Devices).
(§8) cAMP and β-arrestin assays described above were conducted to decide whether candidate compounds were μ- and/or δ-opioid receptor bias agonists for the G-protein pathway. All assays produced the concentration-response curve, and the curve data was validated by a quality control factor named Z′ factor. Because half-maximal effect concentration (EC50) depends on the population of receptors, the maximal asymptote of the concentration curve was used. Efficacy data of candidates was normalized by comparison to reference agonists DAMGO and SNC80 for OPRM and OPRD.

The target in assay [3] is T1, human μ-opioid receptor, OPRM. Description: cAMP accumulation assay (Gi pathway), OPRM cell line. Particulars: Table 1.
From the text: as §5
(§9) Cyclic Adenosine Monophosphate (cAMP) Accumulation
(§10) The agonist's efficacy to the G protein pathway was determined by changes in the cAMP level using the Cisbio cAMP detection kit. The cells used in cAMP assays are the same cell line as used in the β-arrestin 2 assays. The human opioid receptor activates the Gαi so intracellular cAMP accumulation is inhibited. Cisbio detection kit uses labeled cAMP and antibody. This system proceeds to compete with endogenous cAMP. If Gαi is activated, intracellular cAMP decreases. This assures that labeled-cAMP binds more with the antibody so that time-resolved fluorescence […].
as §8
(§11) The hill slope describes the steepness of the curve. […] We set the appropriate interval of hill slope as 0.8<n<1.5 which maintains the sigmoidal curve shape.

For assay [4] the target is unchanged. Description: PathHunter β-arrestin 2 assay, OPRM cell line.
From the text: as §5, §6, §7, §8

In assay [5] the target is T2, human δ-opioid receptor, OPRD. Description: cAMP accumulation assay (Gi pathway), OPRD cell line. Particulars: for OPRD Gi Hill slope: cAMP concentration-response curve; for EC50: read-out: OPRD Gi EC50.
From the text: as §5, §9, §10, §8, §11

For assay [6] the target is unchanged. Kind of assay: Dominant assay: cAMP assay with/without irreversible antagonist β-CNA, OPRD cell line. Particulars: for completeness of concentration-response curve, in words: OPRD system.
From the text: as §1, §2, §3, §4

Where [7] appears, read: addition of β-FNA, Example 3, Tables 5-7, read-out: OPRM Gi β-FNA (+) EC50.
[8] abbreviates: addition of β-FNA, Example 3, Tables 5-7, read-out: OPRM Gi β-FNA (+) Emax (%).
Setting [9] is: addition of β-FNA, repeated dominant assay, Example 4, Tables 8-10, read-out: OPRM Gi β-FNA (+) EC50.
[10] abbreviates: addition of β-FNA, repeated dominant assay, Example 4, Tables 8-10, read-out: OPRM Gi β-FNA (+) Emax (%).
[11] abbreviates: no addition of β-FNA, Example 3, Tables 5-7, read-out: OPRM Gi β-FNA (−) EC50.
Where [12] appears, read: no addition of β-FNA, Example 3, Tables 5-7, read-out: OPRM Gi β-FNA (−) Emax (%).
[13] abbreviates: no addition of β-FNA, repeated dominant assay, Example 4, Tables 8-10, read-out: OPRM Gi β-FNA (−) EC50.
The mark [14] stands for this setting: no addition of β-FNA, repeated dominant assay, Example 4, Tables 8-10, read-out: OPRM Gi β-FNA (−) Emax (%).
Where [15] appears, read: addition of β-CNA, Example 3, Tables 5-7, read-out: OPRD Gi β-CNA (+) EC50.
[16] abbreviates: addition of β-CNA, Example 3, Tables 5-7, read-out: OPRD Gi β-CNA (+) Emax (%).
Setting [17] is: addition of β-CNA, repeated dominant assay, Example 4, Tables 8-10, read-out: OPRD Gi β-CNA (+) EC50.
Where [18] appears, read: addition of β-CNA, repeated dominant assay, Example 4, Tables 8-10, read-out: OPRD Gi β-CNA (+) Emax (%).
[19] abbreviates: no addition of β-CNA, Example 3, Tables 5-7, read-out: OPRD Gi β-CNA (−) EC50.
The mark [20] stands for this setting: no addition of β-CNA, repeated dominant assay, Example 4, Tables 8-10, read-out: OPRD Gi β-CNA (−) EC50.
[21] abbreviates: no addition of β-CNA, Example 3, Tables 5-7.
Setting [22] is: no addition of β-CNA, repeated dominant assay, Example 4, Tables 8-10.
Where [23] appears, read: addition of β-CNA, Example 3, Tables 5-7.

“Also recorded” adds a separate entry of the source.

T2 sequence (P41143 whole entry, the tested form may be a part): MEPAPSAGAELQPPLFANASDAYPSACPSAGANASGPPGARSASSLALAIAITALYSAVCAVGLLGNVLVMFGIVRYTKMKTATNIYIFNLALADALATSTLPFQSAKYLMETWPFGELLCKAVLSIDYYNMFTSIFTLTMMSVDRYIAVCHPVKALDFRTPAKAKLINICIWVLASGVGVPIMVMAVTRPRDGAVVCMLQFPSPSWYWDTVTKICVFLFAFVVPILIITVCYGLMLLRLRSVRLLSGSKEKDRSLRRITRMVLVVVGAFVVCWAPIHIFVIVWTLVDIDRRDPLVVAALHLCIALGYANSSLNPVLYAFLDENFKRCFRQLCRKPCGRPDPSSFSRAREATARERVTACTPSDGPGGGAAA
T1 sequence (P35372 whole entry, the tested form may be a part): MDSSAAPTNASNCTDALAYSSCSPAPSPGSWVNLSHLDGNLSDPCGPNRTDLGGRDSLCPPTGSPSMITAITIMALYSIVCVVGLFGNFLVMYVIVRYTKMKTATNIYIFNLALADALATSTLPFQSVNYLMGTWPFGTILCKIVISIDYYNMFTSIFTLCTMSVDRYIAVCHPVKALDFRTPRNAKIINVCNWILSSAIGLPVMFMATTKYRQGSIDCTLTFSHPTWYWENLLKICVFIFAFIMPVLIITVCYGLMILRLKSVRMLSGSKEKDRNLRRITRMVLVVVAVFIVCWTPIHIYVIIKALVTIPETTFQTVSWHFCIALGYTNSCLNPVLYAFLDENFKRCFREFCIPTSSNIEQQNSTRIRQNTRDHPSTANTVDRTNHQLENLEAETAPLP

Take `CN(C)C(CNC(=O)Cc1ccc2c(c1)OCCO2)c1ccccc1` (racemic) [Compound 1, 2-(2,3-dihydro-1,4-benzodioxin-6-yl)-N-[2-(dimethylamino)-2-phenylethyl]acetamide]: the “maximal response on decreasing receptor population (dominant tendency), in words” value in assay [1] (OPRM cell lines, β-FNA) is listed as “showed a similar pattern as compared to DAMGO”. In addition, the EC50 in assay [1] (setting [7]) amounted to 5860 nM; in assay [1] (setting [9]), 3880 nM; in assay [1] (setting [11]) it was 2090 nM; in assay [1] (setting [13]), 1160 nM; in assay [3] (cAMP), 730 nM; in assay [5] (Table 1, cAMP), 4160 nM. In addition, the EC50 in assay [6] (setting [15]) turned out to be 0.009 µM; in assay [6] (setting [17]) it was 7.87 µM; in assay [6] (setting [19]), 0.00491 µM; in assay [6] (setting [20]), 8.77 µM. Moreover, the Emax in assay [1] (setting [8]) stood at 88.2%; in assay [1] (setting [10]), 67.5%; in assay [1] (setting [12]) it was 101%; in assay [1] (setting [14]), 100%; in assay [2] (Example 3, Tables 5-7, read-out: OPRD β-ARR2 Emax (%)), 7.37%; in assay [2] (Table 1, normalized to reference agonist SNC80, read-out: OPRD arrestin Emax, %) it was 7.37%. The maximum response (Emax) in assay [3] (cAMP, normalized to reference agonist DAMGO) is 102%; in assay [4] (Example 3, Tables 5-7, read-out: OPRM β-ARR2 Emax (%)), 12.9%; in assay [4] (Table 1, normalized to reference agonist DAMGO, read-out: OPRM arrestin Emax, %), 12.9%; in assay [5] (Table 1, cAMP, normalized to reference agonist SNC80), 88.9%; in assay [6] (setting [16]) it was 108%; in assay [6] (setting [18]), 46.6%. Moreover, the Emax came out at 113% in assay [6] (no addition of β-CNA, Example 3, Tables 5-7, read-out: OPRD Gi β-CNA (−) Emax (%)) and 104% in assay [6] (no addition of β-CNA, repeated dominant assay, Example 4, Tables 8-10, read-out: OPRD Gi β-CNA (−) Emax (%)). Also, the “OPRM Gi Hill slope” value in assay [3] (cAMP concentration-response curve) came to 0.99. The “OPRD Gi Hill slope” value in assay [5] (Table 1) was found to be 1.39. In assay [6], the “completeness of concentration-response curve, in words” value is reported as “curve was cut due to the X-axis limitation”.
On to `Cc1ccccc1NC(=O)NCC(c1ccc2c(c1)CCO2)N(C)C` (single isomer, unassigned) [Compound 8], for which the concentration for a half-maximal effect (EC50) came out at 14200 nM in assay [1] (setting [7]); 7780 nM in assay [1] (setting [9]); 734 nM in assay [1] (setting [11]); 219 nM in assay [1] (setting [13]); 35.7 µM in assay [6] (setting [15]); 8.69 µM in assay [6] (setting [17]). The EC50 in assay [6] (setting [19]) was determined as 15 µM; in assay [6] (setting [20]), 16.9 µM. The Emax came to 43.2% in assay [1] (setting [8]); 77.5% in assay [1] (setting [10]); 84.7% in assay [1] (setting [12]); 91.6% in assay [1] (setting [14]); 42.7% in assay [6] (setting [16]); 42.7% in assay [6] (setting [18]). Besides, the “OPRD β-ARR2 Emax (%)” value in assay [2] (Example 3, Tables 5-7) came to 5.1%. Besides, the “β-arrestin pathway activation / bARR2 recruitment, in words” value in assay [2] (OPRD) and in assay [4] (OPRM) was “lower bARR2 recruitment as compared to morphine” throughout. The “OPRM β-ARR2 Emax (%)” value in assay [4] (Example 3, Tables 5-7) turned out to be 5.4%. The “OPRD Gi β-CNA (−) Emax (%)” value is 95.54% in assay [6] (setting [21]) and 102.7% in assay [6] (setting [22]).
Take `Cc1ccccc1NC(=O)NCC(c1ccc2c(c1)CCO2)N(C)C` (single isomer, unassigned) [Compound 9]: the “OPRM Gi β-FNA (+) Emax (%)” value stood at 52.64% in assay [1] (addition of β-FNA, Example 3, Tables 5-7) and 74.49% in assay [1] (addition of β-FNA, repeated dominant assay, Example 4, Tables 8-10). Besides, the concentration giving a half-maximal response (EC50) in assay [1] (setting [7]) came out at 1660 nM; in assay [1] (setting [9]), 791 nM; in assay [1] (setting [11]), 73.3 nM; in assay [1] (setting [13]), 71.3 nM; in assay [6] (setting [15]), 5.86 µM; in assay [6] (setting [17]), 5.86 µM. For the same compound, the concentration for a half-maximal effect (EC50) is 2.79 µM in assay [6] (setting [19]) and 18.1 µM in assay [6] (setting [20]). In addition, the “OPRM Gi β-FNA (−) Emax (%)” value in assay [1] (no addition of β-FNA, Example 3, Tables 5-7) came out at 98.76%; in assay [1] (no addition of β-FNA, repeated dominant assay, Example 4, Tables 8-10) it was 91.98%. The “OPRD β-ARR2 Emax (%)” value in assay [2] (Example 3, Tables 5-7) turned out to be 16.1%. For the same compound, the “OPRM β-ARR2 Emax (%)” value in assay [4] (Example 3, Tables 5-7) is given as 22.9%. Also, the “OPRD Gi β-CNA (+) Emax (%)” value was 51.61% in assay [6] (setting [23]) and 51.61% in assay [6] (addition of β-CNA, repeated dominant assay, Example 4, Tables 8-10). For the same compound, the “OPRD Gi β-CNA (−) Emax (%)” value in assay [6] (setting [21]) is given as 66.82%; in assay [6] (setting [22]), 139%.
Consider `C[C@@H](Cc1ccsc1)NC(=O)NC[C@H](Cc1ccc(O)cc1)N(C)C` [PZM21, reference compound], for which the “OPRD β-ARR2 Emax (%)” value in assay [2] (Example 3, Tables 5-7) is listed as 3.41%. Moreover, the “OPRD arrestin Emax, %” value in assay [2] (Table 1, normalized to reference agonist SNC80) is reported as 3.41%. The “Gi pathway agonism, in words” value in assay [5] (OPRD) is given as “OPRM, OPRD dual biased agonist”. Moreover, the “OPRD Gi Hill slope” value in assay [5] (Table 1) came to 0.83. Besides, the half-maximal effective concentration (EC50) in assay [5] (Table 1, cAMP) is 230 nM; in assay [6] (setting [15]) it was 0.288 µM; in assay [6] (setting [19]) it was 0.119 µM. The “maximal response on decreasing receptor population (dominant tendency), in words” value in assay [6] (OPRD cell lines, β-CNA) was “more susceptible to decreasing receptor populations than SNC80; also recorded: less resistance to decreasing spare receptors than SNC80”. Moreover, in assay [6], the “completeness of concentration-response curve, in words” value is “produced a full concentration-response curve”. Moreover, the “OPRD Gi β-CNA (+) Emax (%)” value in assay [6] (setting [23]) is 58.77%. Besides, the “OPRD Gi β-CNA (−) Emax (%)” value in assay [6] (setting [21]) is listed as 95.97%.

The values above are taken from US20220204449A1, “BIASED AGONISTS OF OPIOID RECEPTORS” (ILDONG PHARMACEUTICAL CO., LTD., priority 2020, published 2022).
